Results published in the kinase profiling compilation of Christmann-Franck et al. (2016).

Target: HIPK1 (human) (UniProt Q86Z02)
Assay: radiometric filter-binding kinase assay, Kinase HotSpot
Details: compound 0.5 µM; ATP 10 µM

HIPK1 (human), sequence (Q86Z02 whole entry, looked up): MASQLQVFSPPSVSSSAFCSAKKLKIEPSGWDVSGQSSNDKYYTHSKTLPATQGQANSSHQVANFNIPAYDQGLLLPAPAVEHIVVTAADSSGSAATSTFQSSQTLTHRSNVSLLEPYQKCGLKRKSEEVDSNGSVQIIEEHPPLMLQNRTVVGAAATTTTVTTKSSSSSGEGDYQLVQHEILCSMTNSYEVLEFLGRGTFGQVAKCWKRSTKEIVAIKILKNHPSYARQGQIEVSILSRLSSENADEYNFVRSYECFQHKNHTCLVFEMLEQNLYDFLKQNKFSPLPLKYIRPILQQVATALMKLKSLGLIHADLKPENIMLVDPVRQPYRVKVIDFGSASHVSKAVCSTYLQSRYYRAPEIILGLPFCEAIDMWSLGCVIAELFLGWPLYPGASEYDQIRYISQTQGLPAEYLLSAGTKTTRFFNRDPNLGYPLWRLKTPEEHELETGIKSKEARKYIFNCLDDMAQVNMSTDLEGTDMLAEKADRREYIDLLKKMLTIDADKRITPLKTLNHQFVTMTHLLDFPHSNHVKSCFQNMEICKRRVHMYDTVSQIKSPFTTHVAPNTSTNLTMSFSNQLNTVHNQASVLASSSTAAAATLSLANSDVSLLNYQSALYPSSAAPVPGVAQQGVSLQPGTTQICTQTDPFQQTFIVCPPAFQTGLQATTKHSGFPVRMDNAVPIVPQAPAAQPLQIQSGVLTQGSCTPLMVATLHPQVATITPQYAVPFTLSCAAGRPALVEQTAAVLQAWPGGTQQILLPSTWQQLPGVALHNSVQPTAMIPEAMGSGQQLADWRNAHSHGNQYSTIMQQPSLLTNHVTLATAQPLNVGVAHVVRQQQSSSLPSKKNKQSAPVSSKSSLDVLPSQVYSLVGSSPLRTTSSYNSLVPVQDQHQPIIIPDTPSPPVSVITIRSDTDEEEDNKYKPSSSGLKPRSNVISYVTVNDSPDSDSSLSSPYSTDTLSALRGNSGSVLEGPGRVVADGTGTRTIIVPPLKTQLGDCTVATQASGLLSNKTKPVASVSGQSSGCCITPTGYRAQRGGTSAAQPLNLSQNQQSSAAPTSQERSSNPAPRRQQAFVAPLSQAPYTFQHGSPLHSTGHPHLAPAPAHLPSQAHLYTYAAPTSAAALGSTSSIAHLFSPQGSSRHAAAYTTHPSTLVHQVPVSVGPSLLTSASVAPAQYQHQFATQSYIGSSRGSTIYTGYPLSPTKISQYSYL

Row | SMILES | residual activity [%]
1 | CCc1nc(-c2ccc(OC)cc2)[nH]c1-c1ccncc1 | 97.7
2 | O=C(O)c1ccc2c3c1cccc3c(=O)n1c3ccccc3nc21 | 104
3 | Cc1cc(Nc2nc(-c3ccccc3)nc3ccccc23)n[nH]1 | 96.3
4 | N#Cc1c(NC(=O)c2cccc3ccccc23)sc2c1CCCC2 | 107

Target: MAPK13 (human) (UniProt O15264)
Assay: as above
Details: compound 0.5 µM; ATP 10 µM

Row | SMILES | residual activity [%]
5 | CCc1nc(-c2ccc(OC)cc2)[nH]c1-c1ccncc1 | 112
6 | O=C(O)c1ccc2c3c1cccc3c(=O)n1c3ccccc3nc21 | 104
7 | Cc1cc(Nc2nc(-c3ccccc3)nc3ccccc23)n[nH]1 | 106
8 | N#Cc1c(NC(=O)c2cccc3ccccc23)sc2c1CCCC2 | 109

Target: PRKG2 (human) (UniProt Q13237)
Sequence (Q13237 whole entry, looked up): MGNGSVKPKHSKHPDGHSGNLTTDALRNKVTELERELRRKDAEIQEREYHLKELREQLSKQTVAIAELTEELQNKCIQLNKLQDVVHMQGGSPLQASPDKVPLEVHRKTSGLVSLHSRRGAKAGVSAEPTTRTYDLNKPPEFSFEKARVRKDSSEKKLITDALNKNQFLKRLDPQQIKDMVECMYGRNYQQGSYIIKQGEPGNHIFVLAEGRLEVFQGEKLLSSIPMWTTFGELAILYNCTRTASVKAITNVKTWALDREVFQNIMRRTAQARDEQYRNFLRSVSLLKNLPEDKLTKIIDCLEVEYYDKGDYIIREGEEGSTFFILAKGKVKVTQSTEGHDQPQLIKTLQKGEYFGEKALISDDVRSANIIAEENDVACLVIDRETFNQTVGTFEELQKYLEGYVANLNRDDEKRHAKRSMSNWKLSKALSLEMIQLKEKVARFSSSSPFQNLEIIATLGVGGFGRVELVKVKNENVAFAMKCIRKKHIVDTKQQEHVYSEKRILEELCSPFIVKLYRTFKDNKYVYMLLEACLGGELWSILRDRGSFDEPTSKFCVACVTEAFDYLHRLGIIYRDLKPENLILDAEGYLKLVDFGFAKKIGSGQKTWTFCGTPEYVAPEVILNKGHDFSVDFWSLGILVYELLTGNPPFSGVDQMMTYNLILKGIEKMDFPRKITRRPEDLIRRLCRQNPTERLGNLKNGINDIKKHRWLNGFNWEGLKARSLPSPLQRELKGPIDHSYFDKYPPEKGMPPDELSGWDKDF
Assay: as above
Details: compound 0.5 µM; ATP 10 µM

Row | SMILES | residual activity [%]
9 | CCc1nc(-c2ccc(OC)cc2)[nH]c1-c1ccncc1 | 91.9
10 | O=C(O)c1ccc2c3c1cccc3c(=O)n1c3ccccc3nc21 | 94.8
11 | Cc1cc(Nc2nc(-c3ccccc3)nc3ccccc23)n[nH]1 | 98.2
12 | N#Cc1c(NC(=O)c2cccc3ccccc23)sc2c1CCCC2 | 111

Target: FGFR2 (human) (UniProt P21802)
Assay: as above
Details: compound 0.5 µM; ATP 10 µM

Row | SMILES | residual activity [%]
13 | CCc1nc(-c2ccc(OC)cc2)[nH]c1-c1ccncc1 | 104
14 | O=C(O)c1ccc2c3c1cccc3c(=O)n1c3ccccc3nc21 | 100
15 | Cc1cc(Nc2nc(-c3ccccc3)nc3ccccc23)n[nH]1 | 83.7
16 | N#Cc1c(NC(=O)c2cccc3ccccc23)sc2c1CCCC2 | 110

Target: EPHB2 (human) (UniProt P29323)
Sequence (P29323 whole entry, looked up): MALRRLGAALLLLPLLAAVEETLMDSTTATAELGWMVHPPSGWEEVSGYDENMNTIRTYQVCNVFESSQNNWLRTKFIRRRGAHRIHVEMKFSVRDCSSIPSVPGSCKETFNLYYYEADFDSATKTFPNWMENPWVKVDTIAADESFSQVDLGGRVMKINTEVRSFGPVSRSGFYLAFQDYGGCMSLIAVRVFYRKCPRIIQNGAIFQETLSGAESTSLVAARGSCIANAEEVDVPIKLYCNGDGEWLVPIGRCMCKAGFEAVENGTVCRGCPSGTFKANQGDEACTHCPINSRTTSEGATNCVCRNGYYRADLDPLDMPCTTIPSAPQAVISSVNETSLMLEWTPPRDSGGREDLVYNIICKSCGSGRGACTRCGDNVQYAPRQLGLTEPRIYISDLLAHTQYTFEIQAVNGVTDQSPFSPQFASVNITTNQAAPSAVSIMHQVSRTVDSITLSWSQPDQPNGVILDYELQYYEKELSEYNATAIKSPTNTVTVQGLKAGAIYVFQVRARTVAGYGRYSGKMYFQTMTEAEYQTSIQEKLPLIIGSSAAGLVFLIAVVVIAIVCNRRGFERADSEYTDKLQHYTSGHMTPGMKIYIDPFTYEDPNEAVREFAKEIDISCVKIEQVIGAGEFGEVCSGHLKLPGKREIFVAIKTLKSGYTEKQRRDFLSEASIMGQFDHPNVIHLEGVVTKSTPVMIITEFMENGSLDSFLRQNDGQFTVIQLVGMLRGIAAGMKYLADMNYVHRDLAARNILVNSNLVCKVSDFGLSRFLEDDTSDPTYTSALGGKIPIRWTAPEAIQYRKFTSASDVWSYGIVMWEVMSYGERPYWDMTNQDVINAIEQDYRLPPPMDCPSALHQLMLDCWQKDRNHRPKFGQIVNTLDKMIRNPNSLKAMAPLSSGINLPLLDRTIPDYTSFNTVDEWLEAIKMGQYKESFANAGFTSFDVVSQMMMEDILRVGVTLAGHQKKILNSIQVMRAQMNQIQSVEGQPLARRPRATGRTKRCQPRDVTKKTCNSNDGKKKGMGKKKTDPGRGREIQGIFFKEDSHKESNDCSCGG
Assay: as above
Details: compound 0.5 µM; ATP 10 µM

Row | SMILES | residual activity [%]
17 | CCc1nc(-c2ccc(OC)cc2)[nH]c1-c1ccncc1 | 111
18 | O=C(O)c1ccc2c3c1cccc3c(=O)n1c3ccccc3nc21 | 104
19 | Cc1cc(Nc2nc(-c3ccccc3)nc3ccccc23)n[nH]1 | 76.7
20 | N#Cc1c(NC(=O)c2cccc3ccccc23)sc2c1CCCC2 | 97.5

Target: FYN (human) (UniProt P06241)
Sequence (P06241 whole entry, looked up): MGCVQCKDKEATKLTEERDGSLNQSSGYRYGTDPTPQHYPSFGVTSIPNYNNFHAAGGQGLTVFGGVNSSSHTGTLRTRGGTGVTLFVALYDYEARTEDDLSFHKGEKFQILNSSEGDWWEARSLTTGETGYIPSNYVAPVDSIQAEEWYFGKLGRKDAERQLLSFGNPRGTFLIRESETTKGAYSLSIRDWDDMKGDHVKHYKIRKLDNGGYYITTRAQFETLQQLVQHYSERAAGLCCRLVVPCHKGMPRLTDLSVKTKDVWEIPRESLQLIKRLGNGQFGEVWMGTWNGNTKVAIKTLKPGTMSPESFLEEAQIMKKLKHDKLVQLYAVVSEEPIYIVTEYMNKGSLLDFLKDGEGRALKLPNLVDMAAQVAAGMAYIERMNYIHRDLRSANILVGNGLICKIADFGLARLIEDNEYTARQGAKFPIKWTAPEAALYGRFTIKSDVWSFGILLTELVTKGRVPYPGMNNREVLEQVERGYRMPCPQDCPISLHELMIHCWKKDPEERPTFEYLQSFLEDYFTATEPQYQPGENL
Assay: as above
Details: compound 0.5 µM; ATP 10 µM

Row | SMILES | residual activity [%]
21 | CCc1nc(-c2ccc(OC)cc2)[nH]c1-c1ccncc1 | 95.1
22 | O=C(O)c1ccc2c3c1cccc3c(=O)n1c3ccccc3nc21 | 94
23 | Cc1cc(Nc2nc(-c3ccccc3)nc3ccccc23)n[nH]1 | 40
24 | N#Cc1c(NC(=O)c2cccc3ccccc23)sc2c1CCCC2 | 102

Target: GSK3A (human) (UniProt P49840)
Assay: as above
Details: compound 0.5 µM; ATP 10 µM

Row | SMILES | residual activity [%]
25 | CCc1nc(-c2ccc(OC)cc2)[nH]c1-c1ccncc1 | 99.1
26 | O=C(O)c1ccc2c3c1cccc3c(=O)n1c3ccccc3nc21 | 87.3
27 | Cc1cc(Nc2nc(-c3ccccc3)nc3ccccc23)n[nH]1 | 11.3
28 | N#Cc1c(NC(=O)c2cccc3ccccc23)sc2c1CCCC2 | 97.2

Target: SGK2 (human) (UniProt Q9HBY8)
Assay: as above
Details: compound 0.5 µM; ATP 10 µM

Row | SMILES | residual activity [%]
29 | CCc1nc(-c2ccc(OC)cc2)[nH]c1-c1ccncc1 | 103
30 | O=C(O)c1ccc2c3c1cccc3c(=O)n1c3ccccc3nc21 | 103
31 | Cc1cc(Nc2nc(-c3ccccc3)nc3ccccc23)n[nH]1 | 99.7
32 | N#Cc1c(NC(=O)c2cccc3ccccc23)sc2c1CCCC2 | 101

Target: MERTK (human) (UniProt Q12866)
Sequence (Q12866 whole entry, looked up): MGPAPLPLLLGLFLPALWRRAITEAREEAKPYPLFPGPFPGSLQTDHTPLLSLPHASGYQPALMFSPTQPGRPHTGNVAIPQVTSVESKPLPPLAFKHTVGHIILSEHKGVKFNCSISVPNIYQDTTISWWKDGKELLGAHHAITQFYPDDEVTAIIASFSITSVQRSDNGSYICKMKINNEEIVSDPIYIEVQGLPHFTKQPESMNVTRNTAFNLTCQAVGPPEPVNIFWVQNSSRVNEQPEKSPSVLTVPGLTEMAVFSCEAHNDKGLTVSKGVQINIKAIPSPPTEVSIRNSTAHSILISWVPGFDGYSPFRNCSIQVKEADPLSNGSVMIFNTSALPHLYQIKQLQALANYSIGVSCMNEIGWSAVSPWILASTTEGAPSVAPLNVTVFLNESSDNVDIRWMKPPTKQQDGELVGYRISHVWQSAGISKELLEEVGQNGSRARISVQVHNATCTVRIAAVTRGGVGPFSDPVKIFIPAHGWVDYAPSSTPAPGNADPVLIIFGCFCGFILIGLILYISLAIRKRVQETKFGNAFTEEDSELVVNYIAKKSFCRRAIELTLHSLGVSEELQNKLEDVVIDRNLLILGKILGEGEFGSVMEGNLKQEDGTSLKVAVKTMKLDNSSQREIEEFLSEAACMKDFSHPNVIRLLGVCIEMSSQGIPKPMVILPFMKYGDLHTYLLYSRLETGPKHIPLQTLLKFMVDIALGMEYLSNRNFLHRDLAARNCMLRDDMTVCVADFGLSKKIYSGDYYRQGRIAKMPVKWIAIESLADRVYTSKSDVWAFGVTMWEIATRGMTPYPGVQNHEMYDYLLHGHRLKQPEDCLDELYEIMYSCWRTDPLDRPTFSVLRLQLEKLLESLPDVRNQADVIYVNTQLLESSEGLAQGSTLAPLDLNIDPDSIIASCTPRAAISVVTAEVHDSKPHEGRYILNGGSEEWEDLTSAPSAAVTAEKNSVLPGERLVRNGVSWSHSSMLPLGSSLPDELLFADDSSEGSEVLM
Assay: as above
Details: compound 0.5 µM; ATP 10 µM

Row | SMILES | residual activity [%]
33 | CCc1nc(-c2ccc(OC)cc2)[nH]c1-c1ccncc1 | 92.1
34 | O=C(O)c1ccc2c3c1cccc3c(=O)n1c3ccccc3nc21 | 77.7
35 | Cc1cc(Nc2nc(-c3ccccc3)nc3ccccc23)n[nH]1 | 72.2
36 | N#Cc1c(NC(=O)c2cccc3ccccc23)sc2c1CCCC2 | 97.9

Target: MELK (human) (UniProt Q14680)
Assay: as above
Details: compound 0.5 µM; ATP 10 µM

Row | SMILES | residual activity [%]
37 | CCc1nc(-c2ccc(OC)cc2)[nH]c1-c1ccncc1 | 110
38 | O=C(O)c1ccc2c3c1cccc3c(=O)n1c3ccccc3nc21 | 97
39 | Cc1cc(Nc2nc(-c3ccccc3)nc3ccccc23)n[nH]1 | 69.1
40 | N#Cc1c(NC(=O)c2cccc3ccccc23)sc2c1CCCC2 | 83.3

Target: MAPK8 (human) (UniProt P45983)
Assay: as above
Details: compound 0.5 µM; ATP 10 µM

Row | SMILES | residual activity [%]
41 | CCc1nc(-c2ccc(OC)cc2)[nH]c1-c1ccncc1 | 98.9
42 | O=C(O)c1ccc2c3c1cccc3c(=O)n1c3ccccc3nc21 | 98
43 | Cc1cc(Nc2nc(-c3ccccc3)nc3ccccc23)n[nH]1 | 92
44 | N#Cc1c(NC(=O)c2cccc3ccccc23)sc2c1CCCC2 | 87.3

Target: SRPK2 (human) (UniProt P78362)
Assay: as above
Details: compound 0.5 µM; ATP 10 µM

Row | SMILES | residual activity [%]
45 | CCc1nc(-c2ccc(OC)cc2)[nH]c1-c1ccncc1 | 101
46 | O=C(O)c1ccc2c3c1cccc3c(=O)n1c3ccccc3nc21 | 89.3
47 | Cc1cc(Nc2nc(-c3ccccc3)nc3ccccc23)n[nH]1 | 68.8
48 | N#Cc1c(NC(=O)c2cccc3ccccc23)sc2c1CCCC2 | 99.2

Target: TYK2 JH1 catalytic (human) (UniProt P29597)
Assay: as above
Details: compound 0.5 µM; ATP 10 µM

Row | SMILES | residual activity [%]
49 | CCc1nc(-c2ccc(OC)cc2)[nH]c1-c1ccncc1 | 106
50 | O=C(O)c1ccc2c3c1cccc3c(=O)n1c3ccccc3nc21 | 22.8
51 | Cc1cc(Nc2nc(-c3ccccc3)nc3ccccc23)n[nH]1 | 34.3
52 | N#Cc1c(NC(=O)c2cccc3ccccc23)sc2c1CCCC2 | 100

Target: NEK3 (human) (UniProt P51956)
Assay: as above
Details: compound 0.5 µM; ATP 10 µM

Row | SMILES | residual activity [%]
53 | CCc1nc(-c2ccc(OC)cc2)[nH]c1-c1ccncc1 | 92.4
54 | O=C(O)c1ccc2c3c1cccc3c(=O)n1c3ccccc3nc21 | 91.8
55 | Cc1cc(Nc2nc(-c3ccccc3)nc3ccccc23)n[nH]1 | 101
56 | N#Cc1c(NC(=O)c2cccc3ccccc23)sc2c1CCCC2 | 93.2

Target: PRKACA (human) (UniProt P17612)
Assay: as above
Details: compound 0.5 µM; ATP 10 µM

Row | SMILES | residual activity [%]
57 | CCc1nc(-c2ccc(OC)cc2)[nH]c1-c1ccncc1 | 100
58 | O=C(O)c1ccc2c3c1cccc3c(=O)n1c3ccccc3nc21 | 99.4
59 | Cc1cc(Nc2nc(-c3ccccc3)nc3ccccc23)n[nH]1 | 97.2
60 | N#Cc1c(NC(=O)c2cccc3ccccc23)sc2c1CCCC2 | 102

Target: PLK3 (human) (UniProt Q9H4B4)
Assay: as above
Details: compound 0.5 µM; ATP 10 µM

Row | SMILES | residual activity [%]
61 | CCc1nc(-c2ccc(OC)cc2)[nH]c1-c1ccncc1 | 96.9
62 | O=C(O)c1ccc2c3c1cccc3c(=O)n1c3ccccc3nc21 | 93.9
63 | Cc1cc(Nc2nc(-c3ccccc3)nc3ccccc23)n[nH]1 | 88.3
64 | N#Cc1c(NC(=O)c2cccc3ccccc23)sc2c1CCCC2 | 99.6

Target: DAPK2 (human) (UniProt Q9UIK4)
Assay: as above
Details: compound 0.5 µM; ATP 10 µM

Row | SMILES | residual activity [%]
65 | CCc1nc(-c2ccc(OC)cc2)[nH]c1-c1ccncc1 | 104
66 | O=C(O)c1ccc2c3c1cccc3c(=O)n1c3ccccc3nc21 | 91.9
67 | Cc1cc(Nc2nc(-c3ccccc3)nc3ccccc23)n[nH]1 | 89.5
68 | N#Cc1c(NC(=O)c2cccc3ccccc23)sc2c1CCCC2 | 105

Target: PRKD2 (human) (UniProt Q9BZL6)
Assay: as above
Details: compound 0.5 µM; ATP 10 µM

Row | SMILES | residual activity [%]
69 | CCc1nc(-c2ccc(OC)cc2)[nH]c1-c1ccncc1 | 102
70 | O=C(O)c1ccc2c3c1cccc3c(=O)n1c3ccccc3nc21 | 86.8
71 | Cc1cc(Nc2nc(-c3ccccc3)nc3ccccc23)n[nH]1 | 75.9
72 | N#Cc1c(NC(=O)c2cccc3ccccc23)sc2c1CCCC2 | 126

Target: AURKB (human) (UniProt Q96GD4)
Assay: as above
Details: compound 0.5 µM; ATP 10 µM

Row | SMILES | residual activity [%]
73 | CCc1nc(-c2ccc(OC)cc2)[nH]c1-c1ccncc1 | 101
74 | O=C(O)c1ccc2c3c1cccc3c(=O)n1c3ccccc3nc21 | 82.5
75 | Cc1cc(Nc2nc(-c3ccccc3)nc3ccccc23)n[nH]1 | 52
76 | N#Cc1c(NC(=O)c2cccc3ccccc23)sc2c1CCCC2 | 103

Target: ERBB4 (human) (UniProt Q15303)
Assay: as above
Details: compound 0.5 µM; ATP 10 µM

Row | SMILES | residual activity [%]
77 | CCc1nc(-c2ccc(OC)cc2)[nH]c1-c1ccncc1 | 86.8
78 | O=C(O)c1ccc2c3c1cccc3c(=O)n1c3ccccc3nc21 | 105
79 | Cc1cc(Nc2nc(-c3ccccc3)nc3ccccc23)n[nH]1 | 92
80 | N#Cc1c(NC(=O)c2cccc3ccccc23)sc2c1CCCC2 | 99.8

Target: MAPK9 (human) (UniProt P45984)
Sequence (P45984 whole entry, looked up): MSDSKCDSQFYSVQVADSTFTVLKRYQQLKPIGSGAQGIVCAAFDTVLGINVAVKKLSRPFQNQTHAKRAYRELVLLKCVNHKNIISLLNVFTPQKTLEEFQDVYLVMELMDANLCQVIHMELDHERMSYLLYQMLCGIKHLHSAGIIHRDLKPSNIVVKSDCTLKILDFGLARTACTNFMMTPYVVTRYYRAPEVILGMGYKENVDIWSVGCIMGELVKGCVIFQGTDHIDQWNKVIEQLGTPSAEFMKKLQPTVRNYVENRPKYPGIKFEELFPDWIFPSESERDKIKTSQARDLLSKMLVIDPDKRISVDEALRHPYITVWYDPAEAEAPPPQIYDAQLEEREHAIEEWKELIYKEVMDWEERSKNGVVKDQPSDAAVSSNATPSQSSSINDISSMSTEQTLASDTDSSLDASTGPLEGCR
Assay: as above
Details: compound 0.5 µM; ATP 10 µM

Row | SMILES | residual activity [%]
81 | CCc1nc(-c2ccc(OC)cc2)[nH]c1-c1ccncc1 | 101
82 | O=C(O)c1ccc2c3c1cccc3c(=O)n1c3ccccc3nc21 | 97.5
83 | Cc1cc(Nc2nc(-c3ccccc3)nc3ccccc23)n[nH]1 | 92.4
84 | N#Cc1c(NC(=O)c2cccc3ccccc23)sc2c1CCCC2 | 33.9
